Experimental data published in patent publication US20140024663A1, “ATB(0,+) AMINO ACID TRANSPORTER AS A DRUG TARGET FOR TREATMENT OF ESTROGEN RECEPTOR-POSITIVE BREAST CANCER” (GEORGIA HEALTH SCIENCES UNIVERSITY RESEARCH INSTITUTE, INC., priority 2012, published 2014).

Tests used:
Format in all cases: cell-based, human
MCF7 cells = assay: ASNS and CHOP mRNA by RT-PCR as readout for amino acid deprivation
Experimental: FIGS. 6A to 6C. Effects of SLC6A14 blockade with α-MT in breast cancer cells. In FIG. 6A, MCF10A (a non-malignant mammary epithelial cell line), MCF7 (an ER-positive breast cancer cell line), and MB231 (an ER-negative breast cancer cell line) cells were treated with or without 2.5 mM α-MT for 24, 48, or 72 h and then used for analysis of asparagine synthetase (ASNS) and CHOP mRNA levels. In FIG. 6B, MCF7, MB231 and MCF10A cells were treated with or without 2.5 mM α-MT for 48 h and then used for immunocytochemical analysis of the constitutively expressed LC-3. In FIG. 6C, MCF7 cells were treated with (“b” and “c”) or without (“a”) α-MT (2.5 mM) for 48 h and then used for electron microscopy. Arrows indicate sequestration of cytoplasm and organelles in pre-autophagosomes and autophagosome, and the asterisk indicates condensed chromatin. N, nucleus. FIGS. 8A and 8B. Influence of α-MT on ASNS and CHOP mRNA levels in control MCF7 cells and in MCF7 cells with shRNA-induced silencing of SLC6A14. In FIG. 8A, five different SLC6A14-specific shRNAs were tested in MCF7 cells using a lentivirus-based system to monitor their efficacy to silence SLC6A14. SLC6A14 mRNA levels were measured by RT-PCR with GAPDH as an internal control. c, control. In FIG. 8B, SLC6A14 was silenced in MCF7 cells with shRNA-4 using a lentivirus-based system and then treated without or with α-MT (2.5 mM, 48 h). RNA isolated from the cells was then used for RT-PCR to monitor the levels of asparagine synthetase (ASNS) and CHOP mRNAs. FIG. 11. Estrogen-dependent suppression of the efficacy of α-MT to induce ASNS and CHOP expression in MCF7 cells. MCF7 cells were cultured in a phenol red-free medium in the absence or presence of estradiol (E2, 10 nM) for 24 h and then treated without or with α-MT (2.5 mM, 24 h). The cells were then used for analysis of SLC6A14, asparagine synthetase (ASNS), and CHOP mRNA levels by RT-PCR. Hypoxanthine/guanine phosphoribosyltransferase-1 (HPRT1) mRNA levels were used as an internal control. RT-PCR. Total RNA was isolated using TRIZOL™ (Invitrogen). 2 μg of RNA was reverse transcribed using the GeneAmp PCR System (Applied Biosystems, Branchburg, N.J.). PCR reaction was performed under optimal conditions specific for each of the primer pairs. GAPDH (glyceraldehyde-3-phosphate dehydrogenase) or HPRT1 (hypoxanthine/guanine phosphoribosyl transferase-1) were used as internal controls. PCR products were size-fractionated on agarose gel, stained with ethidium bromide and imaged using Alpha Imager (Santa Clara, Calif.). Densitometry was performed on PCR bands and normalized to the internal control. Normalized values were used to compare mRNA levels of target genes. Primers used for PCR were as follows.

MB231 cells = assay: Analysis of autophagy (LC3 localization); conditions: MB231, α-MT 2.5 mM, 48 h
Experimental: (§1) FIGS. 6A to 6C. Effects of SLC6A14 blockade with α-MT in breast cancer cells. In FIG. 6A, MCF10A (a non-malignant mammary epithelial cell line), MCF7 (an ER-positive breast cancer cell line), and MB231 (an ER-negative breast cancer cell line) cells were treated with or without 2.5 mM α-MT for 24, 48, or 72 h and then used for analysis of asparagine synthetase (ASNS) and CHOP mRNA levels. In FIG. 6B, MCF7, MB231 and MCF10A cells were treated with or without 2.5 mM α-MT for 48 h and then used for immunocytochemical analysis of the constitutively expressed LC-3. In FIG. 6C, MCF7 cells were treated with (“b” and “c”) or without (“a”) α-MT (2.5 mM) for 48 h and then used for electron microscopy. […]
(§2) Analysis of autophagy. Autophagy was analyzed as described previously (Periyasamy-Thandavan et al., 2010, Autophagy; 6:19-35; and Samaddar et al., 2008, Mol Cancer Ther; 7:2977-2987) by monitoring the localization pattern of constitutively expressed LC3 as well as that of ectopically expressed GFP-LC3. […] At the end of the treatment, cells were fixed with 4% paraformaldehyde and examined by fluorescence microscopy to count the number of cells with punctate GFP-LC3. Autophagosomal proteolysis was quantified as described previously (Periyasamy-Thandavan et al., 2010, Autophagy; 6:19-35). […]

MCF10A cells = assay: Analysis of autophagy (LC3 localization); conditions: α-MT 2.5 mM, 48 h
Experimental: as §1, §2

CC(N)(Cc1c[nH]c2ccccc12)C(=O)O (racemic) [α-MT, α-methyl-DL-tryptophan]
levels of asparagine synthetase mRNA and CHOP mRNA (MCF7 cells; MCF7, α-MT 2.5 mM, 24, 48 or 72 h): increased | α-MT-induced increase of asparagine synthetase and CHOP expression (MCF7 cells; MCF7 cells transfected with vector carrying shRNA #4 (SLC6A14 silenced), α-MT 2.5 mM, 48 h): markedly attenuated | magnitude of α-MT-induced asparagine synthetase and CHOP expression (MCF7 cells; MCF7 cells treated with estradiol 10 nM, phenol red-free medium, α-MT 2.5 mM, 24 h): significantly reduced | expression levels of asparagine synthetase and CHOP (MCF7 cells; MCF7 control cells transfected with empty vector, α-MT 2.5 mM, 48 h): increased | expression of asparagine synthetase and CHOP (MCF7 cells; MCF7 control cells, phenol red-free medium, absence of estradiol, α-MT 2.5 mM, 24 h): induced the expression | autophagy (LC3 localization) (MB231 cells): did not undergo autophagy | autophagy (LC3 localization) (MCF10A cells): did not undergo autophagy
